Data published in ChEMBL document CHEMBL5512626, “Discovery of potent small molecule inhibitors of histone lysine methyltransferase NSDs” (Eur J Med Chem, 2024).

Assays:
[1] = molecular target: T1, Histone-lysine N-methyltransferase NSD3 (Homo sapiens, UniProt Q9BZ95); test: Inhibition of recombinant NSD3 (1021 to 1322 residues) (unknown origin) expressed in Escherichia coli Rossetta (DE3)
T1 sequence (Q9BZ95 whole entry): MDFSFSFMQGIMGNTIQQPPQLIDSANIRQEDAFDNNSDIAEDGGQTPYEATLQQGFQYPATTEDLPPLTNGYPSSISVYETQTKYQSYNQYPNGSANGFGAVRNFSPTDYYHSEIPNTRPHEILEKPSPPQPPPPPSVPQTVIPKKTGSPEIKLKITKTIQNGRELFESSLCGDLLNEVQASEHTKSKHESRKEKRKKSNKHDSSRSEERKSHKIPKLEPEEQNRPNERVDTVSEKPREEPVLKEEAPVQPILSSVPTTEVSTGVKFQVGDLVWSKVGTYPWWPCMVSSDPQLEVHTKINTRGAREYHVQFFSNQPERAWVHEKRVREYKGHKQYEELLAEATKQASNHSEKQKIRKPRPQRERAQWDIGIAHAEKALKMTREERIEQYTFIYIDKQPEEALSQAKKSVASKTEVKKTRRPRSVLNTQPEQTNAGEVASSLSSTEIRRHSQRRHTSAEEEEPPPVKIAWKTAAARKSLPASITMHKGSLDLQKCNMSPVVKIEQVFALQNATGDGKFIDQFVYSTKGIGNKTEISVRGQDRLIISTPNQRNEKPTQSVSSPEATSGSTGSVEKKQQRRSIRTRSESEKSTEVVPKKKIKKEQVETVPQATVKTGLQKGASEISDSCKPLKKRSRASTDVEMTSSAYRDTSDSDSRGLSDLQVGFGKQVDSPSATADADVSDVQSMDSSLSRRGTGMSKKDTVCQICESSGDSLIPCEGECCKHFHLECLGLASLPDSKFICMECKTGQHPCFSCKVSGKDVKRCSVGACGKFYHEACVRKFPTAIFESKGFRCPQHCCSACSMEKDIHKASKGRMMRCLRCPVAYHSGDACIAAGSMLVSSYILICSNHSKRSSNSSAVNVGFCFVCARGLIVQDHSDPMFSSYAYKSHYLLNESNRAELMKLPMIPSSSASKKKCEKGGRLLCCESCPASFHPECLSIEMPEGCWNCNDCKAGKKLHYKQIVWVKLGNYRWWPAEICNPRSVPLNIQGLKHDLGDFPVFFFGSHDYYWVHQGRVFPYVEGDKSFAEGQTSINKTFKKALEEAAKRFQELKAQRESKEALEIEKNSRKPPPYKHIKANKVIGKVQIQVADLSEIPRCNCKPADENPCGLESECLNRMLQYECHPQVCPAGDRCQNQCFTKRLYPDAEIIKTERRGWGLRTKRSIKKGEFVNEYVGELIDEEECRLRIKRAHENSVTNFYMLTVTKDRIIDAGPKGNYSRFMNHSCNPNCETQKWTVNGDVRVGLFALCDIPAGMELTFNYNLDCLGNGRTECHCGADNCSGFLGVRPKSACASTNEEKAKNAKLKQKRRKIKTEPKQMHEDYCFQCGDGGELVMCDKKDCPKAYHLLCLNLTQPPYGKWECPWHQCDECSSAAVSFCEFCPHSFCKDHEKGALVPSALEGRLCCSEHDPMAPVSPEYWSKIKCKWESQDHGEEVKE

[2] = molecular target: T1, Histone-lysine N-methyltransferase NSD3; test: Inhibition of recombinant NSD3 (1021 to 1322 residues) (unknown origin) expressed in Escherichia coli Rossetta (DE3) using H3K36me1 as substrate incubated for 20 mins in presence of SAM by HTRF assay
[3] = molecular target: T2, Histone-lysine N-methyltransferase NSD2 (Homo sapiens, UniProt O96028); test: Inhibition of recombinant NSD2 (942 to 1240 residues) (unknown origin) expressed in Escherichia coli Rossetta (DE3) using H3K36me1 as substrate incubated for 20 mins in presence of SAM by HTRF assay
T2 sequence (O96028 whole entry): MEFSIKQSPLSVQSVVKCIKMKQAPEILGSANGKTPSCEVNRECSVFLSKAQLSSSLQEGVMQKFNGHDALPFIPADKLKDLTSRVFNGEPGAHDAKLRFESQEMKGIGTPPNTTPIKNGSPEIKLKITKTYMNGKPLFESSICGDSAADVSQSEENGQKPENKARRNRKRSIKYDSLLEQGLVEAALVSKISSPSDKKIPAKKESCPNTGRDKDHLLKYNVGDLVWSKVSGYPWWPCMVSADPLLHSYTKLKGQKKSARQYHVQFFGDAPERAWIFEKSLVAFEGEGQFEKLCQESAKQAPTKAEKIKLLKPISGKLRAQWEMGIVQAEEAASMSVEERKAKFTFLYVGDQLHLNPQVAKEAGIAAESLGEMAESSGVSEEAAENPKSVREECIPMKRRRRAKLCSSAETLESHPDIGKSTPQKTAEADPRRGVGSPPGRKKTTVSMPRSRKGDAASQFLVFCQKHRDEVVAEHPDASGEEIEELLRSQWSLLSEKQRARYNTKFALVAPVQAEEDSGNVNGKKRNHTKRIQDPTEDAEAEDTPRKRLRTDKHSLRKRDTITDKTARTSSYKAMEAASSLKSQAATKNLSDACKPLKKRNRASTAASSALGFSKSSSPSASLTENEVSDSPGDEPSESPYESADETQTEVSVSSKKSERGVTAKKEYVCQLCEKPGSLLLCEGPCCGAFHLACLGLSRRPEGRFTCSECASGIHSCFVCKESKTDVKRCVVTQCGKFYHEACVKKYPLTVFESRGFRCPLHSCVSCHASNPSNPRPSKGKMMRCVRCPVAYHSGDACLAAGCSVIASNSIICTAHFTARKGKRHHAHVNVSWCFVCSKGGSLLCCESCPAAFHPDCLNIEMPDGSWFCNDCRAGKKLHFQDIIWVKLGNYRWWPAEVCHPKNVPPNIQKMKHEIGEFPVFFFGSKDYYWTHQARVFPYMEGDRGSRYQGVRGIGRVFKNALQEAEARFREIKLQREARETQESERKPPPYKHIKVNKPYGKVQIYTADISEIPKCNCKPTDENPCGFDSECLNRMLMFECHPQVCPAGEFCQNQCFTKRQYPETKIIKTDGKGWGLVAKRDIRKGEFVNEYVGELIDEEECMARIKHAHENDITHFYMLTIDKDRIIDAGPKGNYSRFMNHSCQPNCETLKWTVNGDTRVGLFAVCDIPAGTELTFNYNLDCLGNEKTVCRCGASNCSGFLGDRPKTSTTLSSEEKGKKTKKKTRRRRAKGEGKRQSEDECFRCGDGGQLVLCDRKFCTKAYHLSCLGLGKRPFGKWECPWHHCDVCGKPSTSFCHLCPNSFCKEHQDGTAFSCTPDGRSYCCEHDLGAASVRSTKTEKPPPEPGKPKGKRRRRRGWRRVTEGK

[4] = Inhibition of cell proliferation of rat RN 22 cells incubated for 6 days by Real-time Glow MT assay; format: functional, cell-based; conditions: RN 22, 144 h

Structure (SMILES) | IC50 [1] | IC50 [2] | other results
Cc1ccc(OCCn2c(S)nc3c(N)ncnc32)cc1 | 14.3 µM | – | –
N#Cc1ccccc1OCCn1cnc2c(N)ncnc21 | – | Not Active | –
CC(=O)Nc1ccc(OCCn2cnc3c(N)ncnc32)cc1 | – | Not Active | –
Cc1cc(CN)cc(C)c1-c1ncn(C)c1-c1ccnc2cc(F)ccc12 | – | – | IC50 [4]: 13 µM
Nc1ccc(OCCn2cnc3c(N)ncnc32)cc1 | – | Not Active | –
N#Cc1ccc(OCCn2c(Br)nc3c(N)ncnc32)cc1 | – | Not Active | –

The next lines start with results.

IC50 [1] | IC50 [2] | Structure (SMILES) | other results
32.2 µM | – | CCOc1ccc(OCCn2c(S)nc3c(N)ncnc32)cc1 | –
13.8 µM | – | CC(C)Oc1ccc(OCCn2c(S)nc3c(N)ncnc32)cc1 | –
– | Not Active | CSc1nc2c(N)ncnc2n1CCOc1ccc(C#N)cc1 | IC50 [3]: Not Active
– | Not Active | Nc1ncnc2c1ncn2CCOc1ccccc1Cl | –
